# Assay results from patent publication US12599556B2, “Ophthalmic compositions” (BIOTHERAVISION, INC., priority 2021, dated 2026).
# Assay: Stability study: assay and related substances by gradient HPLC
# Assay type: physicochemical
# Protocol: The stability of the exemplary compositions was investigated using gradient high performance liquid chromatography analysis at different storage time points of 1 month, 3 months, 6 months, 9 months, and 11 months. The amount of each active ingredient and related degradation substances, pH, osmolality, particle size distribution, and viscosity were measured for each composition at each time point.
# The suspension slurry was not irradiation sterilized in the preparation of Panel 1 formulations.
# The results of the Panel II stability studies at the accelerated condition (40° C.) for the compositions shown in Table 4 are summarized in Table 6. The suspension slurry of Panel 2 formulations F7, F8, and F9 were irradiation sterilized.
compound,measurement,setting,value
"CCOC(=O)O[C@]1(C(=O)OCCl)CC[C@H]2[C@@H]3CCC4=CC(=O)C=C[C@]4(C)[C@H]3[C@@H](O)C[C@@]21C [loteprednol etabonate, chloromethyl (8S,9S,10R,11S,13S,14S,17R)-17-ethoxycarbonyloxy-11-hydroxy-10,13-dimethyl-3-oxo-7,8,9,11,12,14,15,16-octahydro-6H-cyclopenta[a]phenanthrene-17-carboxylate]",Degradation of loteprednol etabonate,stability studies,pH dependency
"O=C(c1ccccc1)c1ccc2n1CCC2C(=O)O (centres unmarked) [Ketorolac tromethamine, 2-amino-2-(hydroxymethyl)propane-1,3-diol; 5-benzoyl-2,3-dihydro-1H-pyrrolizine-1-carboxylic acid]",Stability of ketorolac tromethamine in the compositions,all compositions of the stability studies,exhibited stability
